Measurements reported in patent publication US8058243B2, “Method for treating a brain cancer with ifenprodil” (HSC Research and Development Limited Partnership, priority 2006, dated 2011).
Read-outs that look alike come from different tables or passages of the source.

What was measured:
[1] = test system: mouse NSC neurosphere cultures; test: Dose-response curves and EC50, neurosphere MTT proliferation, 7 days; assay type: cell-based
[2] = test system: murine neural precursor cells (neurosphere cultures); test: HTS of LOPAC library against secondary neurosphere cultures, MTT proliferation assay at 3 μM, day 7 (z score, P value); assay type: cell-based, mouse
[3] = test system: ptc1+/− medulloblastoma precursor cells (neurosphere cultures); test: Medulloblastoma tumor sphere MTT proliferation EC50; assay type: cell-based, mouse
Source text: (§1) Astrocyte Screen and Neurosphere Selectivity Assessment. […] Murine Medulloblastoma Generation and Culture. […] Flow Cytometry. […] Results

[4] = test system: Ptch1+/− Trp53−/− medulloblastoma neurosphere cultures; test: Tumor sphere MTT proliferation EC50; assay type: cell-based, mouse; details: read-out: Ptch1+/− Trp53−/− neurosphere EC50
Source text: as §1

[5] = test system: hGBM2 precursors (WHO grade IV GBM, giant cell variant); test: Human glioblastoma precursor EC50 (hGBM2); assay type: cell-based
[6] = test system: hGBM1 precursors (WHO grade IV GBM); test: Human glioblastoma precursor EC50 (hGBM1); assay type: cell-based
[7] = test system: neural precursors derived from human fetal CNS tissue (hFetal); test: Human fetal neural precursor EC50; assay type: cell-based
NPC colony formation = test: Inhibition of colony formation by bromocriptine with and without (±)-sulpiride; assay type: cell-based, mouse; details: colony formation and MTT values
[8] = test system: nestin expression in NPCs; test: Flow cytometric analysis of nestin in NPCs; assay type: cell-based, mouse
[9] = Table 8, read-out: Neurosphere EC50
[10] = read-out: EC 50% Neurosphere, Table 5
[11] = LOPAC library screen, 3 μM, MTT, secondary neurosphere cultures, day 7
[12] = LOPAC primary screen, neurosphere MTT proliferation, 3 μM, day 7
[13] = yes = significantly inhibited neurosphere proliferation (P<0.01) in the primary screen
[14] = 168 h, normal mouse neurosphere cultures, MTT, 7 days, read-out: Neurosphere EC50
[15] = Mus musculus, read-out: EC 50% Neurosphere, Table 5
[16] = Mus musculus, Table 8, read-out: Neurosphere EC50
[17] = Mus musculus, ptc1+/− medulloblastoma derived neurospheres, read-out: Medulloblastoma Neurosphere EC50
[18] = cultures derived from mouse cerebellar tumor samples, read-out: Ptch1+/− neurosphere EC50
[19] = normal mouse neurosphere cultures, MTT, 7 days, read-out: Neurosphere EC50
[20] = ptc1+/− medulloblastoma derived neurospheres, read-out: Medulloblastoma Neurosphere EC50
[21] = cultures derived from mouse cerebellar tumor samples
[22] = yes/no: significantly inhibited neurosphere proliferation (P<0.01) in the primary screen

## CN1CCN(c2nc3cc(C(F)(F)F)ccc3n3cccc23)CC1.O=C(O)/C=C\C(=O)O [CGS-12066A (40), reference compound]
[1]; [9]
  EC50: 2010 nM
[1]; [10]
  EC50: 2010 nM
[2]; [11]
  Z Score: −2.575
[2]; [12]
  Z score: −2.575
[2]; [13]
  Activity: yes

## COc1cc2ncnc(Nc3ccc(O)cc3)c2cc1OC [WHI-P131 (12), 4-(4′-hydroxylphenyl)-amino-6,7-dimethoxyquinazoline]
[1]; [14]
  EC50: 2350 nM
[1]; [15]
  EC50: 2350 nM
[1]; [16]
  EC50: 2350 nM
[3]; [17]
  EC50: 1520 nM
[3]; [18]
  EC50: 1520 nM

## Oc1ccc(-c2nc(-c3ccc(F)cc3)c(-c3ccncc3)[nH]2)cc1 [SB 202190 (13)]
[1]; [9]
  EC50: 8060 nM
[1]; [19]
  EC50: 8060 nM
[1]; [10]
  EC50: 8060 nM
[2]; LOPAC library screen at 3 μM, secondary neurosphere cultures, MTT
  Z Score: −1.124
[2]; LOPAC screen, neurosphere MTT proliferation, 3 μM, day 7
  Z score: −1.124
[2]; yes/no: significantly inhibited neurosphere proliferation (P<0.01) in primary screen
  Activity: no
[3]; [18]
  EC50: 3010 nM
[3]; [20]
  EC50: 3010 nM

## CC(C)(C)[C@]1(O)CCN2C[C@H]3c4ccccc4CCc4cccc(c43)[C@@H]2C1 (racemic) [(±) Butaclamol (4), (±)-Butaclamol]
[1]; [14]
  EC50: 785 nM
[1]; [15]
  EC50: 785 nM
[1]; [16]
  EC50: 785 nM
[4]; [21]
  EC50: 2530 nM
[2]
  Activity: yes
[2]; 168 h, 3 µM
  Z score: −5.934
[3]; [17]
  EC50: 751 nM
[3]; [18]
  EC50: 751 nM

## CC1=C(/C=C/C(C)=C/C=C/C(C)=C/C(=O)Nc2ccc(O)cc2)C(C)(C)CCC1 [Fenretinide (11), Retinoic acid p-hydroxyanilide]
[1]; [14]
  EC50: 334 nM
[1]; [15]
  EC50: 334 nM
[1]; [16]
  EC50: 334 nM
[2]; [11]
  Z Score: −6.013
[2]; [12]
  Z score: −6.013
[2]; [22]
  Activity: yes
[3]; [17]
  EC50: 204 nM
[3]; [18]
  EC50: 204 nM

## CC(C)COCC(CN(Cc1ccccc1)c1ccccc1)N1CCCC1 (stereo not drawn) [Bepridil (28), Bepridil, reference compound]
[1]; [15]
  EC50: 2700 nM
[1]; [16]
  EC50: 2700 nM
[2]; [11]
  Z Score: −2.655
[2]; [12]
  Z score: −2.655
[2]; [13]
  Activity: yes

## COc1cc([C@@H]2c3cc4c(cc3[C@@H](O[C@@H]3O[C@@H]5CO[C@@H](C)O[C@H]5[C@H](O)[C@H]3O)[C@H]3COC(=O)[C@H]23)OCO4)cc(OC)c1O [Etoposide (2), Etoposide]
[5]; Homo sapiens
  EC50: 270 nM
[1]; [14]
  EC50: 340 nM
[1]; [15]
  EC50: 340 nM
[1]; [16]
  EC50: 340 nM
[6]; Homo sapiens
  EC50: 620 nM
[2]; [11]
  Z Score: −11.1
[2]; [12]
  Z score: −11.102
[2]; [22]
  Activity: yes
[3]; [17]
  EC50: 208 nM
[3]; [18]
  EC50: 208 nM
[7]
  EC50: 160 nM

## CCN(CC)CCOCCOC(=O)C1(c2ccccc2)CCCC1 [Carbetapentane (10), Carbetapentane]
[5]; Homo sapiens
  EC50: 1730 nM
[1]; [14]
  EC50: 756 nM
[1]; [15]
  EC50: 756 nM
[1]; [16]
  EC50: 756 nM
[6]; Homo sapiens
  EC50: 5440 nM
[2]; [11]
  Z Score: −8.021
[2]; [12]
  Z score: −8.021
[2]; [22]
  Activity: yes
[3]; [17]
  EC50: 2080 nM
[3]; [18]
  EC50: 2080 nM

## Cl.Cl.OCCN1CCN(CC/C=C2/c3ccccc3Sc3ccc(C(F)(F)F)cc32)CC1 [cis-(Z)-Flupenthixol (7), cis-(Z)-Flupenthixol]
[1]; [9]
  EC50: 199 nM
[1]; [19]
  EC50: 199 nM
[1]; [10]
  EC50: 199 nM
[2]; [11]
  Z Score: −8.822
[2]; [12]
  Z score: −8.822
[2]; [22]
  Activity: yes
[3]; [18]
  EC50: 187 nM
[3]; [20]
  EC50: 187 nM

## c1ccc2c(c1)[I+]c1ccccc1-2 [Diphenyleneiodonium (33), Diphenyleneiodonium, reference compound]
[1]; [15]
  EC50: 11 nM
[1]; [16]
  EC50: 11 nM
[2]; [11]
  Z Score: −10.07
[2]; [12]
  Z score: −10.068
[2]; [13]
  Activity: yes

## N.N.O=C([O-])C1(C(=O)[O-])CCC1.[Pt+2] [Carboplatin (3), Carboplatin]
[5]
  EC50: 3300 nM
[1]; [9]
  EC50: 489 nM
[1]; [19]
  EC50: 489 nM
[1]; [10]
  EC50: 489 nM
[6]
  EC50: 2040 nM
[2]; [11]
  Z Score: −6.204
[2]; [12]
  Z score: −6.204
[2]; [13]
  Activity: yes
[3]; [18]
  EC50: 196 nM
[3]; [20]
  EC50: 196 nM
[7]
  EC50: 430 nM

## CCN1CCCC1CNC(=O)c1cc(S(N)(=O)=O)ccc1OC (racemic) [(±)-sulpride, reference compound]
NPC colony formation
  rescue of the inhibitory effects of bromocriptine: able to competitively rescue the inhibitory effects
[2]; [12]
  Z score: −0.284
[2]; [22]
  Activity: no

## COc1cc(CNC(=O)CCCCCCC(C)C)ccc1O [Dihydrocapsaicin (15), Dihydrocapsaicin]
[5]; Homo sapiens
  EC50: 21500 nM
[6]; Homo sapiens
  EC50: 88600 nM
[2]; [11]
  Z Score: −10
[2]; [12]
  Z score: −10.003
[2]; [22]
  Activity: yes
[3]; [17]
  EC50: 20 nM
[3]; [18]
  EC50: 20 nM

## CCCCCCCCCCC/C=C\C(C)(C)/C=C\CCCC(=O)O [7,7-Dimethyl-(5Z,8Z)-eicosadienoic acid]
[1]; [9]
  EC50: 5170 nM
[2]
  Z Score: −3.045
[2]; [12]
  Z score: −3.045
[2]; [22]
  Activity: yes

## C[C@@H]1C[C@@H]([C@H](O)CC2CC(=O)NC(=O)C2)C(=O)[C@@H](C)C1 [Cycloheximide (1), Cycloheximide]
[4]; Mus musculus
  EC50: 54 nM
[3]; Mus musculus, read-out: Medulloblastoma Neurosphere EC50
  EC50: 42 nM
[3]; Mus musculus, read-out: Ptch1+/− neurosphere EC50
  EC50: 42 nM

## S=C=Nc1cccc(C2(N3CCCCC3)CCCCC2)c1 [Metaphit (35), Metaphit, reference compound]
[1]; [15]
  EC50: 10000 nM
[1]; [16]
  EC50: 10000 nM
[2]
  Z Score: −4.967
[2]; [12]
  Z score: −4.967
[2]; [22]
  Activity: yes

## O[Si](CCCN1CCCCC1)(c1ccc(F)cc1)C1CCCCC1 (stereo not drawn) [p-F-HHSiD (8), p-fluoro-hexahydrosila-difenidol]
[5]
  EC50: 1230 nM
[1]; [9]
  EC50: 441 nM
[1]; [19]
  EC50: 441 nM
[1]; [10]
  EC50: 441 nM
[6]
  EC50: 12600 nM
[4]; [21]
  EC50: 1370 nM
[3]; [18]
  EC50: 1120 nM
[3]; [20]
  EC50: 1120 nM
[7]
  EC50: 10600 nM

## COc1ccc(CCNC[C@H](O)c2ccc(O)cc2)cc1OC [R(−)-Denopamine (24), R(−)-Denopamine]
[1]; [9]
  EC50: 39200 nM

## (R)-(−)-Propylnorapomorphine [(R)-(−)-Propylnorapomorphine (5)]
[1]; [9]
  EC50: 351 nM
[1]; [19]
  EC50: 351 nM
[1]; [10]
  EC50: 351 nM
[2]
  Activity: yes
  Z Score: −8.274
  Z score: −8.274
[3]; [18]
  EC50: 199 nM
[3]; read-out: Medulloblastoma Neurosphere EC50
  EC50: 199 nM

## CC(C(O)c1ccc(O)cc1)N1CCC(Cc2ccccc2)CC1 (stereo not drawn) [Ifenprodil (9), Ifenprodil]
[5]; Homo sapiens
  EC50: 206 nM
[1]; [14]
  EC50: 616 nM
[1]; [15]
  EC50: 616 nM
[1]; [16]
  EC50: 616 nM
[8]; 2 d treatment, 5 μM, vehicle 20%
  nestin negative cells: 63%
[8]; treatment for 2 d
  expression of the immature NPC marker nestin: substantially decreased
[6]; Homo sapiens
  EC50: 1990 nM
[4]; [21]
  EC50: 807 nM
[2]; [11]
  Z Score: −8.904
[2]; [12]
  Z score: −8.904
[2]; [22]
  Activity: yes
[3]; [17]
  EC50: 451 nM
[3]; [18]
  EC50: 451 nM
[7]
  EC50: 420 nM
